Assay results taken from ChEMBL document CHEMBL4715829, “Heterodimeric Rifampicin-Tobramycin conjugates break intrinsic resistance of Pseudomonas aeruginosa to doxycycline and chloramphenicol in vitro and in a Galleria mellonella in vivo model” (Eur J Med Chem, 2019).
Converted amounts (≈) assume the structure as drawn.

Tests used:
Pseudomonas aeruginosa [1] = assay: Antibacterial activity against gentamicin, tobramycin-resistant Pseudomonas aeruginosa CANWARD 96846 assessed as reduction in bacterial growth incubated for 18 hrs by broth microdilution assay; assay type: functional
[2] = tested on: Staphylococcus epidermidis; assay: Antibacterial activity against methicillin-resistance Staphylococcus epidermidis CAN-ICU 61589 (CAZ>32) assessed as reduction in bacterial growth incubated for 18 hrs by broth microdilution assay; assay type: functional
Pseudomonas aeruginosa [3] = assay: Antibacterial activity against Pseudomonas aeruginosa 100036 assessed as fractional inhibitory concentration index in presence of chloramphenicol incubated for 18 hrs by broth microdilution assay; assay type: functional
Pseudomonas aeruginosa [4] = assay: Antibacterial activity against Pseudomonas aeruginosa 259-96918 assessed as fractional inhibitory concentration index in presence of chloramphenicol incubated for 18 hrs by broth microdilution assay; assay type: functional
Pseudomonas aeruginosa [5] = assay: Antibacterial activity against Pseudomonas aeruginosa 101885 assessed as reduction in bacterial growth incubated for 18 hrs by broth microdilution assay; assay type: functional
Staphylococcus aureus = assay: Antibacterial activity against Staphylococcus aureus ATCC 29213 assessed as reduction in bacterial growth incubated for 18 hrs by broth microdilution assay; assay type: functional
Pseudomonas aeruginosa [6] = assay: Antibacterial activity against wild type Pseudomonas aeruginosa PAO1 assessed as reduction in bacterial growth incubated for 18 hrs by broth microdilution assay; assay type: functional
Acinetobacter baumannii = assay: Antibacterial activity against Acinetobacter baumannii CAN-ICU 63169 assessed as reduction in bacterial growth incubated for 18 hrs by broth microdilution assay; assay type: functional
Pseudomonas aeruginosa [7] = assay: Antibacterial activity against Pseudomonas aeruginosa 264-101354 assessed as fractional inhibitory concentration index in presence of doxycycline incubated for 18 hrs by broth microdilution assay; assay type: functional
Pseudomonas aeruginosa [8] = assay: Antibacterial activity against gentamicin-resistant Pseudomonas aeruginosa CAN-ICU 62308 assessed as reduction in bacterial growth incubated for 18 hrs by broth microdilution assay; assay type: functional
Pseudomonas aeruginosa [9] = assay: Antibacterial activity against Pseudomonas aeruginosa 260-97103 assessed as reduction in bacterial growth incubated for 18 hrs by broth microdilution assay; assay type: functional
[10] = tested on: Staphylococcus epidermidis; assay: Antibacterial activity against methicillin-susceptible Staphylococcus epidermidis CANWARD 81388 assessed as reduction in bacterial growth incubated for 18 hrs by broth microdilution assay; assay type: functional
Escherichia coli = assay: Antibacterial activity against gentamicin, tobramycin, ciprofloxacin-resistant Escherichia coli ATCC 97615 harboring aac(3')IIa gene assessed as reduction in bacterial growth incubated for 18 hrs by broth microdilution assay; assay type: functional
Pseudomonas aeruginosa [11] = assay: Antibacterial activity against Pseudomonas aeruginosa 101243 assessed as reduction in bacterial growth incubated for 18 hrs by broth microdilution assay; assay type: functional
Pseudomonas aeruginosa [12] = assay: Antibacterial activity against Pseudomonas aeruginosa 259-96918 assessed as reduction in bacterial growth incubated for 18 hrs by broth microdilution assay; assay type: functional
Pseudomonas aeruginosa [13] = assay: Antibacterial activity against Pseudomonas aeruginosa 114228 assessed as reduction in bacterial growth incubated for 18 hrs by broth microdilution assay; assay type: functional
Pseudomonas aeruginosa [14] = assay: Antibacterial activity against Pseudomonas aeruginosa 91433 assessed as fractional inhibitory concentration index in presence of chloramphenicol incubated for 18 hrs by broth microdilution assay; assay type: functional
Pseudomonas aeruginosa [15] = assay: Antibacterial activity against Pseudomonas aeruginosa 259-96918 assessed as fractional inhibitory concentration index in presence of doxycycline incubated for 18 hrs by broth microdilution assay; assay type: functional
Pseudomonas aeruginosa [16] = assay: Antibacterial activity against Pseudomonas aeruginosa PAO1 assessed as reduction in bacterial growth by measuring cefotaxime MIC at <=[…] uM in presence of cefotaxime incubated for 18 hrs by broth microdilution assay based checkerboard assay (reference value: […] microg/ml); assay type: functional; details: dose microM <=10
Pseudomonas aeruginosa [17] = assay: Antibacterial activity against Pseudomonas aeruginosa PAO1 assessed as reduction in bacterial growth by measuring rifampicin MIC at <=[…] uM in presence of rifampicin incubated for 18 hrs by broth microdilution assay based checkerboard assay (reference value: […] microg/ml); assay type: functional; details: dose microM <=10
Pseudomonas aeruginosa [18] = assay: Antibacterial activity against Pseudomonas aeruginosa PAO1 assessed as reduction in bacterial growth by measuring tigecycline MIC at <=10 uM in presence of tigecycline incubated for 18 hrs by broth microdilution assay based checkerboard assay (reference value: 4 microg/ml); assay type: functional; details: dose microM <=10
Pseudomonas aeruginosa [19] = assay: Antibacterial activity against Pseudomonas aeruginosa PAO1 assessed as fractional inhibitory concentration index in presence of Doxycycline incubated for 18 hrs by broth microdilution assay based checkerboard assay; assay type: functional
Pseudomonas aeruginosa [20] = assay: Antibacterial activity against Pseudomonas aeruginosa PAO1 assessed as reduction in bacterial growth by measuring ceftazidime MIC at <=10 uM in presence of ceftazidime incubated for 18 hrs by broth microdilution assay based checkerboard assay (reference value: 2 microg/ml); assay type: functional; details: dose microM <=10
Pseudomonas aeruginosa [21] = assay: Antibacterial activity against Pseudomonas aeruginosa PAO1 assessed as fractional inhibitory concentration index in presence of Ceftazidime incubated for 18 hrs by broth microdilution assay based checkerboard assay; assay type: functional
[22] = Hemolytic activity in porcine erythrocyte at 1024 ug/ml incubated for 1 hr; assay type: ADME, cell-based, Sus scrofa; details: pig, porcine erythrocytes, at 1024 µg/mL, read-out: Activity
Pseudomonas aeruginosa [23] = assay: Antibacterial activity against Pseudomonas aeruginosa PAO1 assessed as fractional inhibitory concentration index in presence of Moxifloxacin incubated for 18 hrs by broth microdilution assay based checkerboard assay; assay type: functional
Pseudomonas aeruginosa [24] = assay: Antibacterial activity against Pseudomonas aeruginosa PAO1 assessed as reduction in bacterial growth by measuring clindamycin MIC at <=10 uM in presence of clindamycin incubated for 18 hrs by broth microdilution assay based checkerboard assay (reference value: 1024 microg/ml); assay type: functional; details: dose microM <=10
Pseudomonas aeruginosa [25] = assay: Antibacterial activity against Pseudomonas aeruginosa PAO1 assessed as reduction in bacterial growth by measuring nitrofurantoin MIC at <=10 uM in presence of nitrofurantoin incubated for 18 hrs by broth microdilution assay based checkerboard assay (reference value: 512 microg/ml); assay type: functional; details: dose microM <=10
Pseudomonas aeruginosa [26] = assay: Antibacterial activity against Pseudomonas aeruginosa PAO1 assessed as fractional inhibitory concentration index in presence of Nitrofurantoin incubated for 18 hrs by broth microdilution assay based checkerboard assay; assay type: functional
Pseudomonas aeruginosa [27] = assay: Antibacterial activity against Pseudomonas aeruginosa PAO1 assessed as fractional inhibitory concentration index in presence of Erythromycin incubated for 18 hrs by broth microdilution assay based checkerboard assay; assay type: functional
Pseudomonas aeruginosa [28] = assay: Antibacterial activity against Pseudomonas aeruginosa PAO1 assessed as reduction in bacterial growth by measuring erythromycin MIC at <=10 uM in presence of erythromycin incubated for 18 hrs by broth microdilution assay based checkerboard assay (reference value: 256 microg/ml); assay type: functional; details: dose microM <=10
Pseudomonas aeruginosa [29] = assay: Antibacterial activity against Pseudomonas aeruginosa PAO1 assessed as reduction in bacterial growth by measuring minocycline MIC at <=10 uM in presence of minocycline incubated for 18 hrs by broth microdilution assay based checkerboard assay (reference value: 8 microg/ml); assay type: functional; details: dose microM <=10
[30] = Cytotoxicity against human HEK293 cells assessed as cell viability at 50 uM incubated for 48 hrs by prestoblue assay; assay type: cell-based; details: read-out: Activity
Pseudomonas aeruginosa [31] = assay: Antibacterial activity against Pseudomonas aeruginosa PAO1 assessed as fractional inhibitory concentration index in presence of Cefotaxime incubated for 18 hrs by broth microdilution assay based checkerboard assay; assay type: functional
[32] = Cytotoxicity against human HepG2 cells assessed as cell viability at 50 uM incubated for 48 hrs by prestoblue assay; assay type: cell-based; details: read-out: Activity
Pseudomonas aeruginosa [33] = assay: Antibacterial activity against Pseudomonas aeruginosa PAO1 assessed as fractional inhibitory concentration index in presence of Clindamycin incubated for 18 hrs by broth microdilution assay based checkerboard assay; assay type: functional

Structure (SMILES)	MIC (Pseudomonas aeruginosa [1])	MIC [2]	fractional inhibitory concentration index (FICI) (Pseudomonas aeruginosa [3])	fractional inhibitory concentration index (FICI) (Pseudomonas aeruginosa [4])	MIC (Pseudomonas aeruginosa [5])	MIC (Staphylococcus aureus)	MIC (Pseudomonas aeruginosa [6])	MIC (Acinetobacter baumannii)	fractional inhibitory concentration index (FICI) (Pseudomonas aeruginosa [7])	MIC (Pseudomonas aeruginosa [8])	MIC (Pseudomonas aeruginosa [9])	MIC [10]	MIC (Escherichia coli)	MIC (Pseudomonas aeruginosa [11])	MIC (Pseudomonas aeruginosa [12])	MIC (Pseudomonas aeruginosa [13])	fractional inhibitory concentration index (FICI) (Pseudomonas aeruginosa [14])	fractional inhibitory concentration index (FICI) (Pseudomonas aeruginosa [15])	other results
NC[C@H]1O[C@H](O[C@H]2[C@H](O)[C@@H](O[C@H]3O[C@H](CO)[C@@H](O)[C@H](N)[C@H]3O)[C@H](N)C[C@@H]2N)[C@H](N)C[C@@H]1O [TOBRAMYCIN]	256 µg/mL (≈ 548 µM)	2 µg/mL (≈ 4.28 µM)	1.5	1.25	1 µg/mL (≈ 2.14 µM)	0.5 µg/mL (≈ 1.07 µM)	1 µg/mL (≈ 2.14 µM)	32 µg/mL (≈ 68.4 µM)	1.5	16 µg/mL (≈ 34.2 µM)	32 µg/mL (≈ 68.4 µM)	≤ 0.25 µg/mL	128 µg/mL (≈ 274 µM)	128 µg/mL (≈ 274 µM)	256 µg/mL (≈ 548 µM)	8 µg/mL (≈ 17.1 µM)	1.5	1.125	–
CO[C@H]1/C=C/O[C@@]2(C)Oc3c(C)c(O)c4c(O)c(c(/C=N/N5CCN(Cc6cn(CCCCCCO[C@@H]7[C@@H](O[C@H]8O[C@H](CO)[C@@H](O)[C@H](N)[C@H]8O)[C@H](N)C[C@H](N)[C@H]7O[C@H]7O[C@H](CN)[C@@H](O)C[C@H]7N)nn6)CC5)c(O)c4c3C2=O)NC(=O)/C(C)=C\C=C\[C@H](C)[C@H](O)[C@@H](C)[C@@H](O)[C@@H](C)[C@H](OC(C)=O)[C@@H]1C.Cl.Cl.Cl.Cl.Cl	> 32 µg/mL	4 µg/mL	0.066	<0.375	256 µg/mL	16 µg/mL	512 µg/mL	> 32 µg/mL	0.064	> 32 µg/mL	> 128 µg/mL	4 µg/mL	> 32 µg/mL	≥ 256 µg/mL	> 128 µg/mL	> 128 µg/mL	0.375	<0.156	MIC (Pseudomonas aeruginosa [16]): 16 µg/mL; MIC (Pseudomonas aeruginosa [17]): 4 µg/mL; MIC (Pseudomonas aeruginosa [18]): 2 µg/mL; fractional inhibitory concentration index (FICI) (Pseudomonas aeruginosa [19]): 0.06; MIC (Pseudomonas aeruginosa [20]): 2 µg/mL; fractional inhibitory concentration index (FICI) (Pseudomonas aeruginosa [21]): 1.03; hemolysis at 1 h, 1024 ug/ml [22]: < 2%; fractional inhibitory concentration index (FICI) (Pseudomonas aeruginosa [23]): 0.53; MIC (Pseudomonas aeruginosa [24]): 256 µg/mL; MIC (Pseudomonas aeruginosa [25]): 256 µg/mL; fractional inhibitory concentration index (FICI) (Pseudomonas aeruginosa [26]): 0.53; fractional inhibitory concentration index (FICI) (Pseudomonas aeruginosa [27]): 0.15; MIC (Pseudomonas aeruginosa [28]): 32 µg/mL; MIC (Pseudomonas aeruginosa [29]): 2 µg/mL; viability at 48 h, 50 µM [30]: > 70%; fractional inhibitory concentration index (FICI) (Pseudomonas aeruginosa [31]): 1.03; viability at 48 h, 50 µM [32]: > 70%; fractional inhibitory concentration index (FICI) (Pseudomonas aeruginosa [33]): 0.28
